Measurements: PubChem BioAssay AID1845207 (Molecular Pharmacology Branch, DTP, NCI, 2023)

Tested on: NCI-H1876 tumor spheroid viability
Test: Anticancer human tumor NCI-H1876 cell line growth inhibition;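 note: spheroids exposed to compounds for seven days before the viability read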;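 for viability, T/C: percent of DMSO vehicle control viability so 100% = vehicle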
Conditions: spheroids with HUVEC and MSC; for IC50: curve of first compound; for viability, T/C: stronger effect = lower value
In short: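 Single agents and combinations were tested on spheroids built from tumor cells plus HUVEC and hMSC, at half-log dilutions starting at or near clinical Cmax, else 10 microM; final DMSO 0.25% (v/v).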

[1] = second compound 1 µM, first compound 0.00949 µM
[2] = second compound 1 µM, first compound 0.03 µM
[3] = second compound 1 µM, first compound 0.0949 µM
[4] = second compound 1 µM, first compound 0.3 µM
[5] = second compound 1 µM, first compound 0.949 µM
[6] = second compound 1 µM, first compound 3 µM
[7] = second compound 3.16 µM, first compound 0.00949 µM
[8] = second compound 3.16 µM, first compound 0.03 µM
[9] = second compound 3.16 µM, first compound 0.0949 µM
[10] = second compound 3.16 µM, first compound 0.3 µM
[11] = second compound 3.16 µM, first compound 0.949 µM
[12] = second compound 3.16 µM, first compound 3 µM
[13] = second compound 10 µM, first compound 0.00949 µM
[14] = second compound 10 µM, first compound 0.03 µM
[15] = second compound 10 µM, first compound 0.0949 µM
[16] = second compound 10 µM, first compound 0.3 µM
[17] = second compound 10 µM, first compound 0.949 µM
[18] = second compound 10 µM, first compound 3 µM
[19] = second compound 31.6 µM, first compound 0.00949 µM
[20] = second compound 31.6 µM, first compound 0.03 µM
[21] = second compound 31.6 µM, first compound 0.0949 µM
[22] = second compound 31.6 µM, first compound 0.3 µM
[23] = second compound 31.6 µM, first compound 0.949 µM
[24] = second compound 31.6 µM, first compound 3 µM
[25] = second compound 100 µM, first compound 0.00949 µM
[26] = second compound 100 µM, first compound 0.03 µM
[27] = second compound 100 µM, first compound 0.0949 µM
[28] = second compound 100 µM, first compound 0.3 µM
[29] = second compound 100 µM, first compound 0.949 µM
[30] = second compound 100 µM, first compound 3 µM

Structure (SMILES)	IC50 (second compound 1 µM) [nM]	IC50 (second compound 3.16 µM) [nM]	IC50 (second compound 10 µM) [nM]	IC50 (second compound 31.6 µM) [nM]	IC50 (second compound 100 µM) [nM]	viability, T/C [3] [%]	viability, T/C [4] [%]	viability, T/C [5] [%]	viability, T/C [6] [%]	viability, T/C [9] [%]	viability, T/C [10] [%]	viability, T/C [11] [%]	viability, T/C [12] [%]	viability, T/C [15] [%]	viability, T/C [16] [%]	viability, T/C [17] [%]	viability, T/C [18] [%]	viability, T/C [21] [%]	viability, T/C [22] [%]	viability, T/C [23] [%]	further results
CNCc1ccc(-c2cc(-c3nc(-c4ccc(S(=O)(=O)C(C)C)cc4)cnc3N)on2)cc1 + Cn1nnc2c(C(N)=O)ncn2c1=O	121	83.7	92.3	89.3	< 9.49	54.9	33.6	12.6	0.35	55.4	29.7	15.2	0.44	54	29.9	13.1	11	58.2	30.1	51.8	viability, T/C [1]: 82%; viability, T/C [2]: 70.7%; viability, T/C [7]: 95.4%; viability, T/C [8]: 54.9%; viability, T/C [13]: 86.9%; viability, T/C [14]: 65.2%; viability, T/C [19]: 82%; viability, T/C [20]: 57.8%; viability, T/C [24]: 45.7%; viability, T/C [25]: 50.8%; viability, T/C [26]: 43%; viability, T/C [27]: 36.5%; viability, T/C [28]: 20.9%; viability, T/C [29]: 47.9%; viability, T/C [30]: 0.26%
Cc1sc2c(c1C)C(c1ccc(Cl)cc1)=NC(CC(=O)Nc1ccc(O)cc1)c1nnc(C)n1-2 (stereo not given) + Cn1nnc2c(C(N)=O)ncn2c1=O	55.8	176	89.4	73.7	23.5	45	27	15.7	8.48	54.2	50.6	15.3	10.5	55.1	31	15.1	9	39.4	25.6	13.2	viability, T/C [1]: 85.6%; viability, T/C [2]: 56%; viability, T/C [7]: 84%; viability, T/C [8]: 75.2%; viability, T/C [13]: 87.3%; viability, T/C [14]: 62.2%; viability, T/C [19]: 87.3%; viability, T/C [20]: 75.6%; viability, T/C [24]: 8.31%; viability, T/C [25]: 63.4%; viability, T/C [26]: 44.6%; viability, T/C [27]: 34.2%; viability, T/C [28]: 19.6%; viability, T/C [29]: 9.06%; viability, T/C [30]: 4.09%
Cn1ncnc1[C@H]1c2n[nH]c(=O)c3cc(F)cc(c23)N[C@@H]1c1ccc(F)cc1 + Cn1nnc2c(C(N)=O)ncn2c1=O	43.2	60.8	16	< 9.49	< 9.49	39	25.1	10.8	5.26	52.3	20	50	15.5	47.2	15	33.5	5.45	14.5	12	8.61	viability, T/C [1]: 70.1%; viability, T/C [2]: 54.6%; viability, T/C [7]: 72.4%; viability, T/C [8]: 52.1%; viability, T/C [13]: 56.8%; viability, T/C [14]: 38.1%; viability, T/C [19]: 29.2%; viability, T/C [20]: 19.2%; viability, T/C [24]: 4.86%; viability, T/C [25]: 13.8%; viability, T/C [26]: 10.8%; viability, T/C [27]: 11.6%; viability, T/C [28]: 9.19%; viability, T/C [29]: 33.3%; viability, T/C [30]: 4.67%
O=C(c1cc(Cc2n[nH]c(=O)c3ccccc23)ccc1F)N1CCN(C(=O)C2CC2)CC1 + Cn1nnc2c(C(N)=O)ncn2c1=O	6950	25400	9730	2700	< 94.9	85.1	69.8	77.8	64.6	89.8	82.4	72.7	61.5	79.2	70.3	64.6	53.7	75.3	69.4	53.3	viability, T/C (second compound 1 µM, first compound 9.49 µM): 32.2%; viability, T/C (second compound 1 µM, first compound 30 µM): 56.9%; viability, T/C (second compound 3.16 µM, first compound 9.49 µM): 65.2%; viability, T/C (second compound 3.16 µM, first compound 30 µM): 45.1%; viability, T/C (second compound 10 µM, first compound 9.49 µM): 60%; viability, T/C (second compound 10 µM, first compound 30 µM): 17.2%; viability, T/C [24]: 55.7%; viability, T/C (second compound 31.6 µM, first compound 9.49 µM): 32.9%; viability, T/C (second compound 31.6 µM, first compound 30 µM): 15.8%; viability, T/C [27]: 54.7%; viability, T/C [28]: 31.5%; viability, T/C [29]: 29.6%; viability, T/C [30]: 62.5%; viability, T/C (second compound 100 µM, first compound 9.49 µM): 18.8%; viability, T/C (second compound 100 µM, first compound 30 µM): 15.7%
